Source: patent US7879913B2 (Catholic Healthcare West, priority 2005, dated 2011)
Like-named read-outs stand apart in the source and are kept apart here.

Columns and labels:
[1] = test system: extracellular dopamine levels in the nucleus accumbens; test: microdialysis of extracellular dopamine in nucleus accumbens of acute nicotine-administered rats; type: in vivo, rat
Description: Finally, the effects of IPT on the extracellular dopamine levels in the nucleus accumbens of acute nicotine-administered rats are illustrated by microdialysis.

[2] = target: α4β2-nAChR agonist binding sites (Homo sapiens, UniProt P17787+P43681); test: 3H-epibatidine radioligand binding assay
Sequence of α4β2-nAChR agonist binding sites (P43681 29-627 limits assumed): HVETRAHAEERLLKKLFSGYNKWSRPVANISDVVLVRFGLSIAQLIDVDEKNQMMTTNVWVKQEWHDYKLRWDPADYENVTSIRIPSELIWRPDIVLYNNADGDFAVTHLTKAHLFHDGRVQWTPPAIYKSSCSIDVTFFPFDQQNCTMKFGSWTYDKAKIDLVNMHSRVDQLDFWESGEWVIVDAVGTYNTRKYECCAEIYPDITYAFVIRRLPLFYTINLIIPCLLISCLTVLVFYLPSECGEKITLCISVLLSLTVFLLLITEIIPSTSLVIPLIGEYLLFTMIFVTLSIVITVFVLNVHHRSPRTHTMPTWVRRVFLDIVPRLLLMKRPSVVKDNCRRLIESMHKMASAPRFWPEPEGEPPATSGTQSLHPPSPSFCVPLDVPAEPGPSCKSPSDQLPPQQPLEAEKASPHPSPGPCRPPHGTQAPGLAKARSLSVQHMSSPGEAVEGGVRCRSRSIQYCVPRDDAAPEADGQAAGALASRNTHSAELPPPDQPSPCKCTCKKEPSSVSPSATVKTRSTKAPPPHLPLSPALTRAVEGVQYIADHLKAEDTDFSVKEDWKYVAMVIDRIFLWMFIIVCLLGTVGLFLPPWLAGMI
Sequence of α4β2-nAChR agonist binding sites (P17787 26-502): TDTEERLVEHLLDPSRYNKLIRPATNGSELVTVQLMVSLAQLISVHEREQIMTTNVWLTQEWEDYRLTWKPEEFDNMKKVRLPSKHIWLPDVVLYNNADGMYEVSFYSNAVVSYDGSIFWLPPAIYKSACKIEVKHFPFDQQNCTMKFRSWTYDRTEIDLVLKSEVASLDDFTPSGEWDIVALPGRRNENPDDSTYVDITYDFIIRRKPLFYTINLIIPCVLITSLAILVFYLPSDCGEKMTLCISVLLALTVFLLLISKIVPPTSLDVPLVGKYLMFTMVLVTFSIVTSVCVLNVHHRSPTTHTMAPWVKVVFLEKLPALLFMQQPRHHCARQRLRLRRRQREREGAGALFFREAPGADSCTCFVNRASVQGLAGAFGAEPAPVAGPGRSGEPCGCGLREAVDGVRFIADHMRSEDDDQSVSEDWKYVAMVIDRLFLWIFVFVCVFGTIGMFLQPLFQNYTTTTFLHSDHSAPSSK

[3] = target: human α4β4-nAChR (Homo sapiens, UniProt P30926+P43681); test: whole-cell current responses of α4β4-nAChR; type: cell-based
Sequence of human α4β4-nAChR (P43681 29-627 limits assumed): as the sequence (P43681 29-627 limits assumed) above
Sequence of human α4β4-nAChR (P30926 22-498): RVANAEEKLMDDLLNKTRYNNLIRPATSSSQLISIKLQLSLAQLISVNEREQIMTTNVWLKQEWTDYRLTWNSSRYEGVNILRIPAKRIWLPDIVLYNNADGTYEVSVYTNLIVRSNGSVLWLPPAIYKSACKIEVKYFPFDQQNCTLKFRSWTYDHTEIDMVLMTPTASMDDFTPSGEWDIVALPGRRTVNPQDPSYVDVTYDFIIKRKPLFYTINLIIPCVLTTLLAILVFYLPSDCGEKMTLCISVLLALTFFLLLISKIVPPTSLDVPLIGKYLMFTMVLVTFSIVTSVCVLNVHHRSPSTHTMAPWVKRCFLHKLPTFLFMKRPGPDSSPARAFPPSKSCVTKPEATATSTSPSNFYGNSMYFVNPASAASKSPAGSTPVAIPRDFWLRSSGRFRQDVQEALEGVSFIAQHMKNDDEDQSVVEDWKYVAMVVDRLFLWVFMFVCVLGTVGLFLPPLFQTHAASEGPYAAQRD
Method: (§1) FIG. 9 illustrates that IPT-mediated functional block persisted for α4β2- but not α4β4-nAChR after 3 min of drug washout.
(§2) FIG. 9C depicts the IPT concentration (abscissa; log μM scale) dependence of inhibition of function (ordinate; peak whole-cell current responses normalized to those in the absence of IPT; mean±SE, n=6 cells) of human α4β2-(▪), α4β4-(◯), or α7-(▴) nAChR when IPT is co-applied with agonists.

[4] = target: human α7-nAChR (Homo sapiens, UniProt P36544); test: whole-cell current responses of α7-nAChR to choline; type: cell-based
Sequence of human α7-nAChR (P36544 23-502): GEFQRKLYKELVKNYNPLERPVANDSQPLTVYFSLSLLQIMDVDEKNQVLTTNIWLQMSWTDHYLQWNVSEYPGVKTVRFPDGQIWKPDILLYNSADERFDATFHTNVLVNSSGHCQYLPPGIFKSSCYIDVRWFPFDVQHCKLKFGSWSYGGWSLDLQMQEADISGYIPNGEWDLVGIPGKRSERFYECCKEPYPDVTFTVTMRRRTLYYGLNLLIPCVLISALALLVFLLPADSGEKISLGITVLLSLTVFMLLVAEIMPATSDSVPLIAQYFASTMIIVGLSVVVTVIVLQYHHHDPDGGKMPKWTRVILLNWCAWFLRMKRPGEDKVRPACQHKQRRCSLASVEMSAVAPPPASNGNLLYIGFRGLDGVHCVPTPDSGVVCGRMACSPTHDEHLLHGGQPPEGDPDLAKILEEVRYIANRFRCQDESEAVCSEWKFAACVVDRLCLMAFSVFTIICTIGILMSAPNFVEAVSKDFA
Method: as §1, §2
A double asterisk (**) represents p<0.01.

[5] = target: T1, human α4β2-nAChR (Homo sapiens, UniProt P17787+P43681); test: whole-cell voltage-clamp currents of heterologously expressed human α4β2-nAChR in SH-EP1 cells; type: cell-based; conditions: for reduction of peak current amplitude after initial co-application of nicotine with IPT / peak amplitude of 3 μM nicotine-induced current, % of control / response to nicotine challenge after 15 min of IPT exposure, % of control: 3 μM IPT; for reduction of peak current amplitude after initial co-application of nicotine with IPT: 0 min
T1 construct: expressed in transfected cells; host or cells: SH-EP1 human epithelial cell line (SH-EP1-hα4β2)
T1 sequence (P43681 29-627 limits assumed): as the sequence (P43681 29-627 limits assumed) above
T1 sequence (P17787 26-502): as the sequence (P17787 26-502) above
Description: Heterologously expressed, human α4β2-nAChRs in cloned human epithelia cell (SH-EP1 cell line) were employed as a cellular model to test IPT's pharmacology. IPT acts as a potent and selective antagonist of α4-containing nAChR. IPT inhibits both peak and steady-state whole-cell current responses to nicotinic agonists and accelerates acute desensitization in a concentration-dependent manner while having long-lasting effects after washout. Its effects are enhanced by exposure to nAChR prior to agonist challenge.
The whole-cell traces of nicotinic responses with and without IPT are superimposed in the right traces. For these and all subsequent traces, current amplitude and time calibration bars are indicated, the holding potential (vH) was −60 mV unless indicated otherwise, and the duration of ligand exposure is indicated by the bars above the trace.
In this and all following figures, unless specifically mentioned, each column (or symbol) is the average from 4-6 cells tested, and vertical bars indicate±standard error.

[6] = target: T2, native α4β2-nAChR (Rattus norvegicus, UniProt P09483+P12390); test: RJR-2403-induced currents in single dopamine neurons acutely dissociated from rat VTA; type: cell-based; conditions: VTA DA neurons; peak and steady-state currents
T2 construct: native expressed α4β2-nAChRs in single dopamine neurons acutely dissociated from rat VTA; from tissue; host or cells: dopamine neurons acutely dissociated from rat ventral tegmental area (VTA)
T2 sequence (P09483 31-630): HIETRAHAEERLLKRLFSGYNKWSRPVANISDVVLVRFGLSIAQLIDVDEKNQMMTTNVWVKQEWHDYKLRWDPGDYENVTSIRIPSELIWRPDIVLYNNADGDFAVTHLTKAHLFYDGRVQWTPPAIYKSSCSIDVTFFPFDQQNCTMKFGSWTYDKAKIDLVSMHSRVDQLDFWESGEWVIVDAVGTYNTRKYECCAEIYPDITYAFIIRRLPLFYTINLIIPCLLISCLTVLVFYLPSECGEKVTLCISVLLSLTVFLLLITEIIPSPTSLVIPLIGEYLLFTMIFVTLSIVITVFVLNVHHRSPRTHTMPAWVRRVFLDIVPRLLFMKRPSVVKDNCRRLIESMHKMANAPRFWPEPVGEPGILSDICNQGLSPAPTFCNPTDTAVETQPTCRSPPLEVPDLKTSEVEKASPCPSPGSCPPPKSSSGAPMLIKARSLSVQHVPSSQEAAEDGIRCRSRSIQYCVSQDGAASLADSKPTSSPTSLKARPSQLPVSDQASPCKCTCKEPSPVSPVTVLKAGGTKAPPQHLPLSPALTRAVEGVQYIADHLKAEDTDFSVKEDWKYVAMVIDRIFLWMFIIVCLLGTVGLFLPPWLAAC
T2 sequence (P12390 25-500): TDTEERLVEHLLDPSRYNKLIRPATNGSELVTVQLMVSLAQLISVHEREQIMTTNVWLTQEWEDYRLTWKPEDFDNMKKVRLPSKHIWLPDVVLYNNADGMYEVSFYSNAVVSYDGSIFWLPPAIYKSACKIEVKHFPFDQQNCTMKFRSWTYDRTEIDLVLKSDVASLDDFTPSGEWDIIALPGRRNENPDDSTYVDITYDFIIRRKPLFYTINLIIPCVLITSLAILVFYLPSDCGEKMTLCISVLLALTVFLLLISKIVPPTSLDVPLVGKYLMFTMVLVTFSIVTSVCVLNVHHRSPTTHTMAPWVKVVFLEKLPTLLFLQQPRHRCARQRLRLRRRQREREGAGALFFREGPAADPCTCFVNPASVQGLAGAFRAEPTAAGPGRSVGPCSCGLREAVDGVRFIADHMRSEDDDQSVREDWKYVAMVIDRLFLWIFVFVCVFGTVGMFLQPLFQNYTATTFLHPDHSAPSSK
Description: FIG. 10 illustrates how typical traces representing four VTA DA neurons responded to α4β2-nAChR selective agonist, RJR-2403 with (FIG. 10B) and without IPT (FIG. 10A). […] Finally, FIG. 10C summarizes the inhibition-efficacy relationship curves of IPT-induced inhibition in peak and steady-state currents.

[7] = 3 μM IPT co-applied with 3 μM nicotine, n=6
[8] = 50 μM IPT, 3 μM nicotine, holding potential 0 mV
[9] = 50 μM IPT, 3 μM nicotine, holding potential −40 mV
[10] = 50 μM IPT, 3 μM nicotine, holding potential −80 mV

## CN1CCCC1c1cccnc1 (stereo not drawn) [nicotine, reference compound]
[1]; subcutaneous nicotine 0.5 mg/kg, control group
  increase in dopamine levels versus final sample prior to nicotine administration: 100%
[2]; with previously reported IC50 values
  block of 3H-epibatidine binding: blocked

## CNC1(C)C2CCC(C2)C1(C)C (stereo not drawn) [mecamylamine]
[2]; concentrations up to 1 mM
  block of 3H-epibatidine binding: failed to block radioligand binding

## CC(C)NC(C)(C)C(C)C.Cl [IPT, iptakalim hydrochloride]
[1]; local perfusion with IPT 1-100 μM from microdialysis probe after s.c. nicotine 0.5 mg/kg, significant 20-80 minutes after nicotine
  effect on nicotine-induced elevation of dopamine in the nucleus accumbens: tended to decrease nicotine-induced elevation of dopamine
[3]; 50 μM IPT, 1 μM nicotine
  persistence of functional block after 3 min of drug washout: not
[3]; co-application with agonist (1 μM nicotine), peak current, read-out: IC50 for functional inhibition
  IC50: 23 µM
[4]; 10 μM IPT, 3 min pre-treatment then co-application, 1 mM choline
  inhibition of α7-nAChR-mediated currents: 3.5±0.4%
[4]; co-application with agonist (choline), peak current, read-out: IC50 for α7-nAChR blockade
  IC50: > 1000 µM
[5]; 3 μM IPT co-applied with 3 μM nicotine, VH −60 mV, n=6
  reduction of peak whole-cell current (Ip): 20.85±2.69%
[5]; [7]
  acceleration of rate of decay from peak to steady-state current: 21.38±3.40%
  reduction of ratio of steady-state to peak current (Is/Ip): 68.62±2.23%
[5]; 3 μM nicotine, nicotine at start and end only (second value)
  reduction of peak current amplitude after initial co-application of nicotine with IPT: 13.6±2.4%
[5]; 3 μM nicotine, repetitive nicotine challenge protocol (first value)
  reduction of peak current amplitude after initial co-application of nicotine with IPT: 16.8±6.1%
[5]; 3 min pre-treatment ending before exposure to nicotine alone
  peak amplitude of 3 μM nicotine-induced current, % of control: 81±7 % of control
[5]; 3 min pre-treatment followed by continued co-application
  peak amplitude of 3 μM nicotine-induced current, % of control: 62±4 % of control
[5]; after repeated nicotine challenges (4 sec at 3 min intervals)
  response to nicotine challenge after 15 min of IPT exposure, % of control: 11.9±1.7 % of control
[5]; co-application with nicotine without pre-treatment
  peak amplitude of 3 μM nicotine-induced current, % of control: 79±9 % of control
[5]; without repeated nicotine challenges
  response to nicotine challenge after 15 min of IPT exposure, % of control: 29.8±3.3 % of control
[5]; 10 μM IPT, 3 min pre-treatment then co-application, 3 μM nicotine
  inhibition of α4β2-nAChR-mediated currents: 70±11%
[5]; [8]
  current decay constant, % of control: 44±7.6 % of control
  fractional inhibition of whole-cell peak current responses to nicotine: 68.9±3.5%
[5]; [9]
  current decay constant, % of control: 30±1.1 % of control
  fractional inhibition of whole-cell peak current responses to nicotine: 76.4±2.6%
[5]; [10]
  current decay constant, % of control: 22±3.4 % of control
  fractional inhibition of whole-cell peak current responses to nicotine: 80.9±2.65%
[5]; 50 μM IPT, 3 μM nicotine
  persistence of functional block after 3 min of drug washout: persisted
[5]; 50 μM IPT, agonist ACh 10 μM
  block of peak whole-cell currents: 65.81±1.49%
[5]; 50 μM IPT, agonist RJR-2403 3 μM
  block of peak whole-cell currents: 72.72±1.98%
[5]; 50 μM IPT, agonist cytisine 100 μM (maximally efficacious, partial agonist)
  block of responses to cytisine: 49.32±3.46%
[5]; 50 μM IPT, agonist nicotine 3 μM
  block of peak whole-cell currents: 76.37±2.56%
[5]; co-application condition, 3 μM nicotine, n=6, read-out: IC50 for inhibition of whole-cell steady-state current
  IC50: 1 µM
[5]; co-application with agonist, without pretreatment, 3 μM nicotine, read-out: IC50 for inhibition of peak whole-cell responses
  IC50: 31 µM
[5]; washout after 4 sec exposure to 50 μM IPT, 3 μM nicotine
  half-time for recovery of peak current response to nicotine challenge: ~15 min
[5]; with 3 min pretreatment with IPT, 3 μM nicotine, read-out: IC50 for inhibition of peak whole-cell responses
  IC50: 5 µM
[2]; concentrations up to 1 mM
  block of 3H-epibatidine binding: failed to block radioligand binding
[6]
  effect on RJR-2403-induced current response: inhibited RJR-2403-induced current response in a concentration-dependent manner
